In this assay the target is CFTR-mediated chloride transport (Homo sapiens, UniProt P13569). Type of assay: cell-based. The conditions noted are these: enteroid cells incubated with test compound 18-24 hours, acute 10 μM forskolin and 300 nM Compound III; for Max. Activity: % of chloride transport with 3 μM Compound A, 3 μM Compound II and 300 nM acute Compound III triple combination control. In a few lines: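 Membrane-potential fluorescence AUC over 15 min quantified CFTR chloride transport after acute forskolin (10 μM), IBMX (100 μM) and Compound III (300 nM) in chloride-free buffer. Human enteroid cells were pretreated with compound for 18–24 h; % Activity is relative to 3 μM Compound A + 3 μM Compound II + 300 nM Compound III.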
CFTR-mediated chloride transport, sequence (P13569 whole entry, looked up): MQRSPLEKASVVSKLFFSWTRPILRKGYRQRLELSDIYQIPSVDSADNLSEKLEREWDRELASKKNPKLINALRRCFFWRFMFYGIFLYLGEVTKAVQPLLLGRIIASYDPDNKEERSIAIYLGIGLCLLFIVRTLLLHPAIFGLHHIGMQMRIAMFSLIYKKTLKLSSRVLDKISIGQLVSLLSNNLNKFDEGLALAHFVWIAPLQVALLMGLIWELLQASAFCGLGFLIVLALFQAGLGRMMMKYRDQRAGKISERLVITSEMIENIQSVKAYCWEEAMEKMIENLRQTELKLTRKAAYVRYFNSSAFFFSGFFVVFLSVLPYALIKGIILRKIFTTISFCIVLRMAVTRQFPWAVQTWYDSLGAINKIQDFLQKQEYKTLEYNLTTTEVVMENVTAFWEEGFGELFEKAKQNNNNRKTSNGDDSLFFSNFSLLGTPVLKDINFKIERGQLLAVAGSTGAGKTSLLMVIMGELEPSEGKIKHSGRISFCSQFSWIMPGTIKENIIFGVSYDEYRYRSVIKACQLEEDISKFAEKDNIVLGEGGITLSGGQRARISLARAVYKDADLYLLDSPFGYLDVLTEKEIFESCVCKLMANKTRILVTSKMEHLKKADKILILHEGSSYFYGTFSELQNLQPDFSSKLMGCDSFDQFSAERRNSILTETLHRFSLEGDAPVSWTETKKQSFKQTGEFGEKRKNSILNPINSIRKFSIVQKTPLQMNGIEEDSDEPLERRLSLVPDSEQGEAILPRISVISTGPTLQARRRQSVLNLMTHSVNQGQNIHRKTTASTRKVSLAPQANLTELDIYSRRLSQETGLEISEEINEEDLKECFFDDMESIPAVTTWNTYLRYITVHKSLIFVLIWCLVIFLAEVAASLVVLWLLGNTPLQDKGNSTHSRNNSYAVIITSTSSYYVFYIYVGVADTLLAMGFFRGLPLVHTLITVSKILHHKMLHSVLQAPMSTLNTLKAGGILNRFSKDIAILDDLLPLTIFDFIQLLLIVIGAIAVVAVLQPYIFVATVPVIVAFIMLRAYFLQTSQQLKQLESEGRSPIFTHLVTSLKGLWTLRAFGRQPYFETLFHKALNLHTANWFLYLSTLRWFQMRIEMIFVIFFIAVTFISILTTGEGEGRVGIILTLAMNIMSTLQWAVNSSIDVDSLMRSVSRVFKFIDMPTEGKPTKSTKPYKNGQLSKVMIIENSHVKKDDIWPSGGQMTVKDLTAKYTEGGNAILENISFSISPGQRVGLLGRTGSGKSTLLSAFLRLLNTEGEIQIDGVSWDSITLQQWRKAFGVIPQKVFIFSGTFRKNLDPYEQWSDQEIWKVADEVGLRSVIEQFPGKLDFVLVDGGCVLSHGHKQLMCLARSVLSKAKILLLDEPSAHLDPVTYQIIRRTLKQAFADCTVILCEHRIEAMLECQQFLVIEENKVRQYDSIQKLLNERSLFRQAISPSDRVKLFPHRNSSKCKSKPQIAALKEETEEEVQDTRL

Take `Cc1c2cnn1CCCC[C@H]1CN(c3nc(-n4ccc(OCCC5(C(F)(F)F)CC5)n4)ccc3C(=O)NS2(=O)=O)C(C)(C)C1` (single isomer, unassigned) [Compound 81, 21,21,23-trimethyl-4-(3-{2-[1-(trifluoromethyl)cyclopropyl]ethoxy}-1H-pyrazol-1-yl)-10λ^6-thia-1,3,9,13,14-pentaazatetracyclo[17.2.1.111,14.02,7]tricosa-2,4,6,11(23),12-pentaene-8,10,10-trione]: the EC50 – broadly, the concentration at which the effect is half-maximal – was under 1 µM and the “Max. Activity” value was “++ (++ is 30-60%)”.

Turning to `CC1(C)C[C@H]2C[C@@H](F)CNc3cccc(n3)S(=O)(=O)NC(=O)c3ccc(-n4ccc(OCCC5C6(CC6)C56CC6)n4)nc3N1C2` (single isomer, unassigned) [Compound 306, 8-[3-(2-{dispiro[2.0.2.1]heptan-7-yl}ethoxy)-1H-pyrazol-1-yl]-16-fluoro-12,12-dimethyl-2λ^6-thia-3,9,11,18,23-pentaazatetracyclo[17.3.1.111,14.05,10]tetracosa-1(22),5,7,9,19(23),20-hexaene-2,2,4-trione], the EC50 is under 1 µM and the “Max. Activity” value is on record as “+++ (+++ is >60%)”.

Turning to `CC1(C)C[C@H]2CCCCn3ccc(n3)S(=O)(=O)NC(=O)c3ccc(-n4ccc(OCCC5(C(F)(F)F)CC5)n4)nc3N1C2` (single isomer, unassigned) [Compound 45, 21,21-dimethyl-4-(3-{2-[1-(trifluoromethyl)cyclopropyl]ethoxy}-1H-pyrazol-1-yl)-10λ^6-thia-1,3,9,14,23-pentaazatetracyclo[17.2.1.111,14.02,7]tricosa-2,4,6,11(23),12-pentaene-8,10,10-trione], the EC50 is under 1 µM and the “Max. Activity” value is “+++ (+++ is >60%)”.

With `CC1(C)C[C@H]2CCCNc3cccc(n3)S(=O)(=O)NC(=O)c3ccc(-n4ccc(OCCC5(C(F)(F)F)CC5)n4)nc3N1C2` [Compound 13, (14R)-12,12-dimethyl-8-(3-{2-[1-(trifluoromethyl)cyclopropyl]ethoxy}-1H-pyrazol-1-yl)-2λ^6-thia-3,9,11,18,23-pentaazatetracyclo[17.3.1.111,14.05,10]tetracosa-1(23),5,7,9,19,21-hexaene-2,2,4-trione], the EC50 was 1 to 3 µM and the “Max. Activity” value was “+ (+ is <30%)”.

In the case of `CC1(C)C[C@H]2CCCNc3ccc(cn3)S(=O)(=O)NC(=O)c3ccc(-n4ccc(OCCC5(C(F)(F)F)CC5)n4)nc3N1C2` (single isomer, unassigned) [Compound 72, 12,12-dimethyl-8-(3-{2-[1-(trifluoromethyl)cyclopropyl]ethoxy}-1H-pyrazol-1-yl)-2λ^6-thia-3,9,11,18,20-pentaazatetracyclo[17.2.2.111,14.05,10]tetracosa-1(22),5,7,9,19(23),20-hexaene-2,2,4-trione], the EC50 is over 3 µM and the “Max. Activity” value is “+ (+ is <30%)”.

Regarding `CC1(C)CC[C@H]2CCCCNc3cccc(n3)S(=O)(=O)NC(=O)c3ccc(-n4ccc(OCCC5(C(F)(F)F)CC5)n4)nc3N21` (single isomer, unassigned) [Compound 46, 12,12-dimethyl-8-(3-{2-[1-(trifluoromethyl)cyclopropyl]ethoxy}-1H-pyrazol-1-yl)-2λ^6-thia-3,9,11,20,25-pentaazatetracyclo[19.3.1.05,10.011,15]pentacosa-1(24),5,7,9,21(25),22-hexaene-2,2,4-trione], the EC50 was over 3 µM and the “Max. Activity” value is listed as “+ (+ is <30%)”.

On to `CC1(C)C[C@H]2CCCn3ccc(n3)S(=O)(=O)NC(=O)c3ccc(N4CCC(OCCC5(C(F)(F)F)CC5)C4=O)nc3N1C2` (stereo in doubt) [Compound 183, 20,20-Dimethyl-4-(2-oxo-3-{2-[1-(trifluoromethyl)cyclopropyl]ethoxy}pyrrolidin-1-yl)-10λ^6-thia-1,3,9,14,22-pentaazatetracyclo[16.2.1.111,14.02,7]docosa-2,4,6,11(22),12-pentaene-8,10,10-trione], for which the EC50 was under 1 µM and the “Max. Activity” value is “++ (++ is 30-60%)”.

For the compound `CC1(C)C[C@@H]2CCCNc3cccc(n3)S(=O)(=O)NC(=O)c3ccc(N4CCN(C5CCCCC5)C4=O)nc3N1C2` [Compound 200, (14S)-8-(3-cyclohexyl-2-oxoimidazolidin-1-yl)-12,12-dimethyl-2λ^6-thia-3,9,11,18,23-pentaazatetracyclo[17.3.1.111,14.05,10]tetracosa-1(22),5,7,9,19(23),20-hexaene-2,2,4-trione], the EC50 was under 1 µM and the “Max. Activity” value was “+ (+ is <30%)”.

Turning to `CC1(C)C[C@@H]2CCCNc3cccc(n3)S(=O)(=O)NC(=O)c3ccc(N4CCN(CC(C)(C)C(F)(F)F)C4=O)nc3N1C2` [Compound 225, (14S)-12,12-dimethyl-8-[2-oxo-3-(3,3,3-trifluoro-2,2-dimethylpropyl)imidazolidin-1-yl]-2λ^6-thia-3,9,11,18,23-pentaazatetracyclo[17.3.1.111,14.05,10]tetracosa-1(22),5,7,9,19(23),20-hexaene-2,2,4-trione], the EC50 is under 1 µM and the “Max. Activity” value was “++ (++ is 30-60%)”.

Turning to `CC1(C)C[C@H]2CCCCCNc3cccc(n3)S(=O)(=O)NC(=O)c3ccc(-n4ccc(OCCC5(C(F)(F)F)CC5)n4)nc3N1C2` (single isomer, unassigned) [Compound 63, 12,12-dimethyl-8-(3-{2-[1-(trifluoromethyl)cyclopropyl]ethoxy}-1H-pyrazol-1-yl)-2λ^6-thia-3,9,11,20,25-pentaazatetracyclo[19.3.1.111,14.05,10]hexacosa-1(24),5,7,9,21(25),22-hexaene-2,2,4-trione], the half-maximal effective concentration (EC50) was under 1 µM and the “Max. Activity” value is recorded as “+++ (+++ is >60%)”.

Regarding `CC1(C)C[C@@H]2CCCNc3cccc(n3)S(=O)(=O)NC(=O)c3ccc(N4CC[C@H](OCCC56CC7CC(CC(C7)C5)C6)C4=O)nc3N1C2` (single isomer, unassigned) [Compound 241], the EC50 is under 1 µM and the “Max. Activity” value is listed as “++ (++ is 30-60%)”.

Take `CC1(C)C[C@H]2CCCCc3cccc(c3)S(=O)(=O)NC(=O)c3ccc(-n4ccc(OCCC5(C(F)(F)F)CC5)n4)nc3N1C2` (single isomer, unassigned) [Compound 56, 12,12-dimethyl-8-(3-{2-[1-(trifluoromethyl)cyclopropyl]ethoxy}-1H-pyrazol-1-yl)-2λ^6-thia-3,9,11-triazatetracyclo[17.3.1.111,14.05,10]tetracosa-1(22),5,7,9,19(23),20-hexaene-2,2,4-trione]: the EC50 was under 1 µM and the “Max. Activity” value is “+ (+ is <30%)”.

As for `CC1(C)C[C@H]2CCCCNc3ccc(cn3)S(=O)(=O)NC(=O)c3ccc(-n4ccc(OCC5C6(CC6)C56CC6)n4)nc3N1C2` (single isomer, unassigned) [Compound 120, 8-[3-({dispiro[2.0.2.1]heptan-7-yl}methoxy)-1H-pyrazol-1-yl]-12,12-dimethyl-2λ^6-thia-3,9,11,19,21-pentaazatetracyclo[18.2.2.111,14.05,10]pentacosa-1(23),5,7,9,20(24),21-hexaene-2,2,4-trione], the EC50 was under 1 µM and the “Max. Activity” value was “++ (++ is 30-60%)”.

Turning to `CC1(C)C[C@H]2CCCCc3cccc(n3)S(=O)(=O)NC(=O)c3ccc(-n4ccc(OCCC5(C(F)(F)F)CC5)n4)nc3N1C2` (single isomer, unassigned) [Compound 86, 12,12-dimethyl-8-(3-{2-[1-(trifluoromethyl)cyclopropyl]ethoxy}-1H-pyrazol-1-yl)-2λ^6-thia-3,9,11,23-tetraazatetracyclo[17.3.1.111,14.05,10]tetracosa-1(23),5,7,9,19,21-hexaene-2,2,4-trione], the EC50 is over 3 µM and the “Max. Activity” value is listed as “+ (+ is <30%)”.

With `Cc1cn2nc1S(=O)(=O)NC(=O)c1ccc(-n3ccc(OCCC(C4CC4)C4CC4)n3)nc1N1C[C@H](CCC2)CC1(C)C` (single isomer, unassigned) [Compound 202, 4-[3-(3,3-dicyclopropylpropoxy)-1H-pyrazol-1-yl]-12,20,20-trimethyl-10λ^6-thia-1,3,9,14,22-pentaazatetracyclo[16.2.1.111,14.02,7]docosa-2(7),3,5,11(22),12-pentaene-8,10,10-trione], the EC50 is under 1 µM and the “Max. Activity” value is “++ (++ is 30-60%)”.

With `Cc1cc2nn1CCC[C@H]1CN(c3nc(-n4ccc(OCCC5(C(F)(F)F)CC5)n4)ccc3C(=O)NS2(=O)=O)C(C)(C)C1` (single isomer, unassigned) [Compound 150, 13,20,20-Trimethyl-4-(3-{2-[1-(trifluoromethyl)cyclopropyl]ethoxy}-1H-pyrazol-1-yl)-10λ^6-thia-1,3,9,14,22-pentaazatetracyclo[16.2.1.111,14.02,7]docosa-2,4,6,11(22),12-pentaene-8,10,10-trione], the EC50 fell in the range of 1 to 3 µM and the “Max. Activity” value is given as “+ (+ is <30%)”.

Regarding `CC1(C)C[C@H]2CCCNc3cccc(n3)S(=N)(=O)NC(=O)c3ccc(-n4ccc(OCCC5(C(F)(F)F)CC5)n4)nc3N1C2` (single isomer, unassigned) [Compound 272, 2-imino-12,12-dimethyl-8-(3-{2-[1-(trifluoromethyl)cyclopropyl]ethoxy}-1H-pyrazol-1-yl)-2λ^6-thia-3,9,11,18,23-pentaazatetracyclo[17.3.1.111,14.05,10]tetracosa-1(23),5,7,9,19,21-hexaene-2,4-dione], the EC50 is over 3 µM and the “Max. Activity” value is recorded as “+ (+ is <30%)”.

(Values after patent US11866450B2, “Modulators of Cystic Fibrosis Transmembrane Conductance regulator, pharmaceutical compositions, methods of treatment, and process for making the modulators” (priority 2018, dated 2024).)
